Measurements from patent US20240383856A1 (Zedira GmbH, priority 2021, published 2024).
pIC50: −log10 of the molar value. Where two headings read alike, the source gives them in different places.

Columns and labels:
[1] = target: T1, recombinant human transglutaminase 2 (Homo sapiens, UniProt P21980); assay: Transglutaminase assay (DCC-assay): incorporation of dansylcadaverine into dimethylcasein; assay type: biochemical
T1 construct: purchased Zedira T022
T1 sequence (P21980 1-687): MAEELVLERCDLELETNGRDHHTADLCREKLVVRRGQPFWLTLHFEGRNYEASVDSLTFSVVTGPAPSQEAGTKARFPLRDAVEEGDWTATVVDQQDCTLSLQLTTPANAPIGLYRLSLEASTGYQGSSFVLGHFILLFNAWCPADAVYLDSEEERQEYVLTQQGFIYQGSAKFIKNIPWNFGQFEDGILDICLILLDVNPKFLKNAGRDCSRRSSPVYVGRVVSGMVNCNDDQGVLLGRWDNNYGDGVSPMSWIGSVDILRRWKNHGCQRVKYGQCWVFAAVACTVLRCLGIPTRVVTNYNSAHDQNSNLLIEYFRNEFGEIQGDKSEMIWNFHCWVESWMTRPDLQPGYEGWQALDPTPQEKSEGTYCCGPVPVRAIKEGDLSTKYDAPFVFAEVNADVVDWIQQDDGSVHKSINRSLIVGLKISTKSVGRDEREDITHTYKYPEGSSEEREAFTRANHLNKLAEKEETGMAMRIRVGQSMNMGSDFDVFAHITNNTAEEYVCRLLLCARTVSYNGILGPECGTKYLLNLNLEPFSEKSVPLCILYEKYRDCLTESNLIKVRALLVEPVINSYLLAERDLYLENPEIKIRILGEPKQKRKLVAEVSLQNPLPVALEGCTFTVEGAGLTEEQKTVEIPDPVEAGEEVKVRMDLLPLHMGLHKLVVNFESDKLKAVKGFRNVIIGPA
Outline: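 IC50 is the inhibitor level that blocks 50% of initial activity. Activity is the fluorescence slope (λex 330, λem 500 nm) between 20 and 30 min of a 37 °C run, relative to a 2% DMSO control. The enzyme is recombinant human tissue transglutaminase, 10 nM final, tested against a 1:2 inhibitor dilution series in a pH 8.0 mix with 10 mM CaCl2, 10 mM glutathione, 16.7 µM dansylcadaverine and 4 µM N,N-dimethylcasein.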

[2] = Single-dose oral pharmacokinetic profile in mice; assay type: in vivo; details: male C57BL/6 mice, single oral dose 200 mg/kg
Description: Presumed from promising Papp values (permeability coefficients, see below), the 5 inventors had proven the oral bioavailability of the inhibitors of the present application by the representative compounds II-3, II-15, and II-28. For this selected set of representative compounds, pharmacokinetic profiles were determined in male C57BL/6 mice (N=3, each). Briefly, the compounds were administered as single-dose soluble, oral formulation [20 mg/ml in PBS/(2—Hydroxypropyl)-β-cyclodextrin formulation] at 200 mg/kg. Plasma samples were taken at (0, 0.25, 0.5, 1, 2, 4, and 6 hours) and analyzed by LC-MS to determine the concentration of the representative compounds.

IC90 ([1]; TG2, table with the PK study): 180 nM
pIC50 ([1]; TG2, table with the PK study, read-out: IC50): 7.64
pIC50 ([1]; recombinant human TG2 10 nM, dansylcadaverine incorporation into dimethylcasein, read-out: IC50 TG2): > 7.40
Kel [2]: 1.0 h⁻¹
CL/F ([2]; mouse, plasma): 277 mL/min/kg
MRT ([2]; mouse, plasma): 60 min
half-life ([2]; mouse, plasma): 42 min
AUC(0-t) ([2]; mouse, plasma): 12000 ng·h/mL
Cmax ([2]; mouse, plasma, read-out: Cmax): 21.6 µM
Cmax ([2]; mouse, plasma, read-out: Cmax [ng/ml]): 13600 ng/mL
Structure (SMILES): CNC(=O)C(=O)CC[C@H](NC(=O)c1oc2ccccc2c1C)C(=O)Nc1cccn(CC(=O)NC2C3CC4CC(C3)CC2C4)c1=O (stereo partly drawn) [II-3, (S)-N1-(1-(2-(2-adamantylamino)-2-oxoethyl)-2-oxo-1,2-dihydropyridin-3-yl)-N6-methyl-2-(3-methylbenzofuran-2-carboxamido)-5-oxohexanediamide]
